Experimental findings from patent publication US20240207214A1, “FATTY ACID LACTYLATES FOR USE IN TREATING RUMINANT ANIMALS” (FORFARMERS CORPORATE SERVICES B.V., priority 2021, published 2024) are described below.

Type in all cases: in vivo
Settings in all cases: diet supplementation, 10 ruminants per group; putative results

Assay [1] has as its system ruminants. The experiment in a line: comparison of lactylates: effect on methane emission. As for the experimental part:
The well documented in vitro gas production technique (batch culture) (Soliva et al., Letters in Applied Microbiology 2003, 37, 35-39) was used in this study. The rumen fluid used in this incubation was obtained before the morning feeding from 3 rumen fistulated dairy cows on a basal diet composed of 50% maize silage and 50% wilted grass silage (on DM basis), supplemented with some straw and soybean meal. In addition, a balanced compound feed was fed to fulfill the animals' requirements for milk production. The rumen fluid of the three animals was mixed and used to prepare the inoculum. Incubations were performed in sealed 125-mL flasks, in triplicate. The supplements comprising the lactylates (in this case applied as ALOAPUR® powder as obtained from Purac/Corbion) at the level of 1 mg per ml buffered rumen fluid (see below), as well as the simulated dairy cow ration were added to the incubation flasks. On the day of the incubation, the flasks were sealed and flushed with CO2. To each flask, 25 mL of CO2-saturated bicarbonate/phosphate buffered rumen fluid was added (buffer:rumen fluid 4:1, v:v) before the onset of the in vitro incubations at 39° C. in a shaking incubator (Edmund Bühler Gmbh, Hechingen, Germany). After 24 h incubation period, the flasks were removed from the incubator and put directly in an ice bath to stop the microbial activity. Total gas pressure was measured, and the gas phase was sampled for gas composition analysis. Afterwards, pH was measured, and samples were collected for volatile fatty acids (VFA) analysis and protozoa numbers counting. […] Methane emission is determined as described in Example 1; SCC, BC and mastitis effects are determined as described in Example 2. Effect on fecal consistency and effect on milk yield is determined as described in Example 3. The different lactylates are stearoyl lactylate, lauroyl lactylate, myristoyl lactylate, cetyl lactylate, palmitoyl lactylate and oleic lactylate. As control, the same diet without lactylates is supplied.

Assay [2] has as its system ruminants. The experiment in a line: comparison of lactylates: effect on SCC, BC and mastitis. As for the experimental part: Two experiments were carried out to evaluate the efficacy of lactylates in stimulating udder health. The first experiment was conducted with goats and the second with dairy cows. In the first experiment, a goat farm was used. The farm had issues with udder health and had high levels of somatic cell count (SCC) and bacterial counts (BC) in milk delivered. Performance and udder health data were collected every 4 weeks from shortly before starting the experiment for a duration of 3 months. During the experiment all goats on the farm were offered a ration supplemented with lactylates (in this case applied as ALOAPUR® powder as obtained from Purac/Corbion) (added to the compound feed, 3.5 to 7 g per goat per day). During the 3-month study period, every 3 to 4 weeks, data on performance and udder health was collected. The 2nd study was conducted on 7 dairy farms. […] Lactylates were supplemented to the ration of the cows on those farms via the compound feed (25 to 40 g per cow per day). The study lasted for 3 months. Performance and udder health data were collected at the beginning and every 4 weeks of the study. […] Methane emission is determined as described in Example 1; SCC, BC and mastitis effects are determined as described in Example 2. Effect on fecal consistency and effect on milk yield is determined as described in Example 3. The different lactylates are stearoyl lactylate, lauroyl lactylate, myristoyl lactylate, cetyl lactylate, palmitoyl lactylate and oleic lactylate. As control, the same diet without lactylates is supplied.

In assay [3] the test system is ruminants. The experiment in a line: comparison of lactylates: effect on fecal consistency score. Here is the method:
(§1) Two experiments were carried out to evaluate the efficacy of lactylate in stimulating intestinal absorptive capacity and improving fecal consistency, dry matter content and scores and milk fat yield. The first experiment was conducted with goats and the second with dairy cows. The focus of the first experiment was the absorptive capacity and fecal consistency and scores, while the 2nd experiment focused on the effect on milk fat yield. In the first experiment, a goat farm was used. The farm had issues with fecal consistency, having at least 30 goats per pen with low fecal consistency. Fecal consistency and scores per pen were recorded 2 times per week from the start of the experiment for a period of 3 months. The goats in the farm were supplemented with lactylates (in this case applied as ALOAPUR® powder as obtained from Purac/Corbion) (added to the compound feed) at the rate of 3.5 to 7 g per goat per day. The 2nd study focused on the effect on milk fat yield and was conducted at a dairy research farm. The herd (120 cows) was divided into 2 groups blocked on days in milk, milk yield and milk fat %. One group was supplemented with 50 g of lactylates per cow per day while the other group served as a control. The ration for both groups was similar and was balanced on energy, protein and minerals and vitamins. The experiment lasted for 9 week. Performance data was collected/recorded on weekly basis. […] Methane emission is determined as described in Example 1; SCC, BC and mastitis effects are determined as described in Example 2. Effect on fecal consistency and effect on milk yield is determined as described in Example 3. The different lactylates are stearoyl lactylate, lauroyl lactylate, myristoyl lactylate, cetyl lactylate, palmitoyl lactylate and oleic lactylate. As control, the same diet without lactylates is supplied.

The test system of assay [4] is ruminants. The experiment in a line: comparison of lactylates: effect on milk fat yield. Here is the method:
as §1

On to `CCCCCCCCCCCC(=O)OC(C)C(=O)O` (stereo not drawn) [Lauroyl lactylate, lauroyl lactylate], for which the “Methane emission reduction relative to control” value in the assay on ruminants [1] was “by >90%”. In the assay on ruminants [2], the “BC in milk reduced relative to control” value is on record as “by >20%,”, the “SCC in milk reduced relative to control” value was “by >20%,” and the “incidence of mastitis reduced relative to control” value is given as “by >25%”. In addition, the “Number of ruminants with low fecal consistency reduced relative to control” value in the assay on ruminants [3] is listed as “by >50%”. Also, in the assay on ruminants [4], the “Average milk fat yield increased relative to control” value is “by >10%”.

Regarding `CCCCCCCCCCCCCC(=O)OC(C)C(=O)O` (stereo not drawn) [Myristoyl lactylate, myristoyl lactylate], in the assay on ruminants [1], the “Methane emission reduction relative to control” value is “by >90%”. In the assay with ruminants [2], the “BC in milk reduced relative to control” value is “by >20%,”, the “SCC in milk reduced relative to control” value was “by >20%,” and the “incidence of mastitis reduced relative to control” value is “by >25%”. Moreover, the “Number of ruminants with low fecal consistency reduced relative to control” value with ruminants [3] is on record as “by >50%”. Also, in the assay on ruminants [4], the “Average milk fat yield increased relative to control” value was “by >10%”.

Consider `CCCCCCCC/C=C\CCCCCCCC(=O)OC(C)C(=O)O` (stereo not drawn) [Oleic lactylate, oleic lactylate], for which the “Methane emission reduction relative to control” value in the assay on ruminants [1] is “by >90%”. Also, in the assay on ruminants [2], the “BC in milk reduced relative to control” value is recorded as “by >20%,”, the “SCC in milk reduced relative to control” value is on record as “by >20%,” and the “incidence of mastitis reduced relative to control” value is on record as “by >25%”. For the same compound, the “Number of ruminants with low fecal consistency reduced relative to control” value in the assay on ruminants [3] is recorded as “by >50%”. In addition, in the assay with ruminants [4], the “Average milk fat yield increased relative to control” value is recorded as “by >10%”.

With `CCCCCCCCCCCCCCCC(=O)OC(C)C(=O)O` (stereo not drawn) [Palmitoyl lactylate, palmitoyl lactylate], in the assay with ruminants [1], the “Methane emission reduction relative to control” value is listed as “by >90%”. In addition, in the assay on ruminants [2], the “BC in milk reduced relative to control” value is “by >20%,”, the “SCC in milk reduced relative to control” value is “by >20%,” and the “incidence of mastitis reduced relative to control” value was “by >25%”. The “Number of ruminants with low fecal consistency reduced relative to control” value in the assay on ruminants [3] is reported as “by >50%”. Also, the “Average milk fat yield increased relative to control” value in the assay on ruminants [4] was “by >10%”.

For cetyl lactylate, the “Methane emission reduction relative to control” value with ruminants [1] was “by >90%”. In the assay on ruminants [2], the “BC in milk reduced relative to control” value is “by >20%,”, the “SCC in milk reduced relative to control” value was “by >20%,” and the “incidence of mastitis reduced relative to control” value was “by >25%”. Further, the “Number of ruminants with low fecal consistency reduced relative to control” value with ruminants [3] is “by >50%”. In the assay with ruminants [4], the “Average milk fat yield increased relative to control” value is “by >10%”.
